Consider three molecules from patent publication US11453703B2, “Heterotandem bicyclic peptide complexes” (BicycleTX Limited, priority 2018, dated 2022).

Chain of CD137 (Q07011 24-255): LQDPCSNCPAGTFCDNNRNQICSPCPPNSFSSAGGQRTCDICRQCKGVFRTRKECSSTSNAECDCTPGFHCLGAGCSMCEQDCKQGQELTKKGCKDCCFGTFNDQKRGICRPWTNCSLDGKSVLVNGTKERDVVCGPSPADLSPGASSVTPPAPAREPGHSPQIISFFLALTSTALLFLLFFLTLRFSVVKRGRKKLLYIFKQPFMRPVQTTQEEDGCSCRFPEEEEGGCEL

This data set concerns the target CD137 (Homo sapiens, UniProt Q07011). The data set can be described thus: CD137 reporter assay, co-culture with Nectin-4 tumour cells.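 Note: jurkat reporter cells co-cultured with tumour cells and test article for 6 h, luminescence signal relative to Jurkat plus tumour cells lacking test article.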 The conditions noted are these: tumour target Nectin4, co-culture with H1376, 6 h. The class given is cell-based. On the set-up: host or cells: Jurkat reporter cells.
Consider `CCCC[C@@H]1NC(=O)[C@H](Cc2ccc(O)cc2)NC(=O)[C@@H]2CCCN2C(=O)[C@H](CC(=O)O)NC(=O)[C@H](C)NC(=O)[C@H](Cc2ccccc2)NC(=O)[C@@H]2CSCCC(=O)N3CN(CN(C3)C(=O)CCSC[C@@H](C(=O)N[C@@H](CNC(=O)CCOCCOCCOCCOCCOCCOCCOCCOCCOCCOCCOCCOCCOCCOCCOCCOCCOCCOCCOCCOCCOCCOCCOCCOCCOCCC(=O)N[C@H]3CSCCC(=O)N4CN5CN(C4)C(=O)CCSC[C@H](NC(=O)[C@@H](CC(=O)O)NC(=O)[C@H](Cc4cccc6ccccc46)NC(=O)[C@@H]4CCCN4C3=O)C(=O)N[C@@H](CCSC)C(=O)N[C@@H](CCCCNC(=N)N)C(=O)N[C@@H](CC(=O)O)C(=O)N[C@@H](Cc3c[nH]c4ccccc34)C(=O)N[C@@H](CO)C(=O)N[C@@H]([C@@H](C)O)C(=O)N3CCC[C@H]3C(=O)N3C[C@H](O)C[C@H]3C(=O)N[C@@H](Cc3c[nH]c4ccccc34)C(=O)N[C@H](C(N)=O)CSCCC5=O)C(N)=O)NC1=O)C(=O)CCSC[C@H](NC(=O)[C@H](C)NC(C)=O)C(=O)N[C@@H]([C@@H](C)CC)C(=O)N[C@@H](CCC(=O)O)C(=O)N[C@@H](CCC(=O)O)C(=O)NCC(=O)N[C@@H](CCC(N)=O)C(=O)N[C@@H](Cc1ccc(O)cc1)C(=O)N2` [BCY9759], for which the “Fold Induction over Background” value came to 15 fold.
To `CCCC[C@@H]1NC(=O)[C@H](Cc2ccc(O)cc2)NC(=O)[C@@H]2CCCN2C(=O)[C@H](CC(=O)O)NC(=O)[C@H](C)NC(=O)[C@H](Cc2ccccc2)NC(=O)[C@@H]2CSCCC(=O)N3CN(CN(C3)C(=O)CCSC[C@@H](C(=O)N[C@@H](CNC(=O)Cn3cc(CCC(=O)NCCC(=O)N(C)CC(=O)N(C)CC(=O)N(C)CC(=O)N(C)CC(=O)N(C)CC(=O)N(C)CC(=O)N(C)CC(=O)N(C)CC(=O)N(C)CC(=O)N(C)CC(=O)N[C@H]4CSCCC(=O)N5CN6CN(C5)C(=O)CCSC[C@H](NC(=O)[C@@H](CC(=O)O)NC(=O)[C@H](Cc5cccc7ccccc57)NC(=O)[C@@H]5CCCN5C4=O)C(=O)N[C@@H](CCSC)C(=O)N[C@@H](CCCCNC(=N)N)C(=O)N[C@@H](CC(=O)O)C(=O)N[C@@H](Cc4c[nH]c5ccccc45)C(=O)N[C@@H](CO)C(=O)N[C@@H]([C@@H](C)O)C(=O)N4CCC[C@H]4C(=O)N4C[C@H](O)C[C@H]4C(=O)N[C@@H](Cc4c[nH]c5ccccc45)C(=O)N[C@H](C(N)=O)CSCCC6=O)nn3)C(N)=O)NC1=O)C(=O)CCSC[C@H](NC(C)=O)C(=O)N[C@@H](CC(C)(C)C)C(=O)N1CCC[C@H]1C(=O)N[C@@H](CCC(=O)O)C(=O)N[C@H](C)C(=O)N1CCC[C@H]1C(=O)N[C@@H](Cc1ccc(O)cc1)C(=O)N2` [BCY10578] belongs 58 fold; to `CCCC[C@@H]1NC(=O)[C@H](Cc2ccc(O)cc2)NC(=O)[C@@H]2CCCN2C(=O)[C@H](CC(=O)O)NC(=O)[C@H](C)NC(=O)[C@H](Cc2ccccc2)NC(=O)[C@@H]2CSCCC(=O)N3CN(CN(C3)C(=O)CCSC[C@@H](C(=O)N[C@@H](CNC(=O)CCc3cn(CCOCCOCCOCCOCCOCCOCCOCCOCCOCCOCCOCCOCCC(=O)NCCC(=O)N(C)CC(=O)N(C)CC(=O)N(C)CC(=O)N(C)CC(=O)N(C)CC(=O)N(C)CC(=O)N(C)CC(=O)N(C)CC(=O)N(C)CC(=O)N(C)CC(=O)NCCCC[C@H]4NC(=O)[C@H](Cc5cccc6ccccc56)NC(=O)[C@@H]5CCCN5C(=O)[C@@H](NC(C)=O)CSCCC(=O)N5CN6CN(C5)C(=O)CCSC[C@H](NC4=O)C(=O)N[C@@H](CCSC)C(=O)N[C@@H](CCCCNC(=N)N)C(=O)N[C@@H](CC(=O)O)C(=O)N[C@@H](Cc4c[nH]c5ccccc45)C(=O)N[C@@H](CO)C(=O)N[C@@H]([C@@H](C)O)C(=O)N4CCC[C@H]4C(=O)N4C[C@H](O)C[C@H]4C(=O)N[C@@H](Cc4c[nH]c5ccccc45)C(=O)N[C@H](C(N)=O)CSCCC6=O)nn3)C(N)=O)NC1=O)C(=O)CCSC[C@H](NC(C)=O)C(=O)N[C@@H](CC(C)(C)C)C(=O)N1CCC[C@H]1C(=O)N[C@@H](CCC(=O)O)C(=O)N[C@H](C)C(=O)N1CCC[C@H]1C(=O)N[C@@H](Cc1ccc(O)cc1)C(=O)N2` [BCY10917], 54 fold.
